Publication PMC11714206, “Massively Parallel Screening of Toll/Interleukin‐1 Receptor (TIR)‐Derived Peptides Reveals Multiple Toll‐Like Receptors (TLRs)‐Targeting Immunomodulatory Peptides” (Advanced Science, 2024)
Several values for one entry are separate records, joined by “and”; a condition that tells them apart may be missing. Equal values may be shown once. One block for each sequence: values may come before it.

Biological target: T1, MyD88^TIR (Homo sapiens, UniProt Q99836)
T1 construct: MyD88 (residues 148–296); 6xHis; made in house; host or cells: E. coli BL21 (DE3)
T1 sequence (Q99836 148-296): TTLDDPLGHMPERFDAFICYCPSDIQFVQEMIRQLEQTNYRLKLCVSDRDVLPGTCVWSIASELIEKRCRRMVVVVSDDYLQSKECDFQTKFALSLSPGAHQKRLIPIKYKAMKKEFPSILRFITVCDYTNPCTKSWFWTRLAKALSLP
Experiment: T‐Surf phage library (P8 and P3) selection against MyD88^TIR, four rounds, NGS read counts
Format: binding
Details: for Population: 4th round of selection against MyD88 TIR, share of NGS reads; for P3_MyD88 Rank (after) / P3_MyD88 Rank (before): P3 library; for P8_MyD88 Rank (after) / P8_MyD88 Rank (before): P8 library
Procedure: T‐Surf libraries were screened against the immobilized TIR domains of two major human TLR adaptor proteins, MAL^TIR and MyD88^TIR, allowing cross‐species selection of TIR‐binding motifs with 190 946 TIR‐derived peptides in a single binding assay (Scheme 1). Enriched phage pools from the fourth round of selection were analyzed using NGS after barcoding the peptide‐coding regions of the phage pools.
Phage display screening was performed by coating two wells of a 96‐well plate (Maxisorp, Thermo Fisher Scientific) with 100 µL of 5 µg mL^−1 TIR domains overnight; then, the coated wells were blocked with 200 µL of blocking buffer (0.2% BSA in PBS) and set aside for 1 h at 4 °C with gentle shaking. Next, 100 µL of the phage library was added to the wells and incubated for 1 h at room temperature (RT; 20 – 22 °C) with gentle shaking. The plate was washed four times with PBS containing 0.5% Tween‐20; the bound phages were eluted by adding 100 µL of 100 mM HCl to each well. The elute was neutralized with 10 µL of 1.0 M Tris‐HCl (pH 11.0). E. coli TG1 cells were grown to the log phase (A600 = ≈0.6), and 1 mL of the culture was incubated with 100 µL of the eluted phages for 30 min at 37 °C, with shaking at 200 rpm. Next, 1 µL of M13KO7 helper phages was added, followed by incubation for 45 min at 37 °C, with shaking. Subsequently, the cells were transferred to 25 mL of 2× yeast extract tryptone/carbenicillin/kanamycin medium and incubated overnight at 37 °C with shaking at 200 rpm. The amplified phages were precipitated with 20% PEG‐8000/2.5 M NaCl to be used for the next round of selection.
The naïve T‐Surf libraries in P8 and P3 and the enriched phage pools after four rounds were barcoded for NGS as previously described.^[ [59] ^] Briefly, 5 µL of the phage pool was used as a template for 20 cycles of a 50 µL PCR reaction using […] each of forward and reverse barcoded primers and PrimeSTAR Max DNA Polymerase. The PCR products were purified using Expin Gel SV (GeneAll). The NGS samples were quantified using qPCR, following the qPCR Quantification Protocol Guide (KAPA Library Quantification kits for Illumina Sequencing Platform), and qualified using the TapeStation High Sensitivity D1000 ScreenTape (Agilent Technologies). The indexed libraries were further sequenced by Macrogen (Seoul, Republic of Korea) using the NovaSeq platform (Illumina) with 100 bp paired‐end reads. The reads were demultiplexed by barcodes and filtered for an average Phred quality score of at least 30, followed by trimming the flanking consensus sequences using Cutadapt (version 2.3). Peptide sequence populations were analyzed according to the read counts.

[1] = P8_MyD88: rank by count after grouping
[2] = P8_MyD88: rank by count before grouping
[3] = P8_MyD88 pool: P8 T-Surf phage library
[4] = 4R selection against MyD88, rank after grouping
[5] = 4R selection against MyD88, rank before grouping
[6] = P3_MyD88: rank by count after grouping
[7] = P3_MyD88: rank by count before grouping
[8] = P3_MyD88 pool: P3 T-Surf phage library
[9] = selection against MyD88 TIR, rank by count after grouping
[10] = selection against MyD88 TIR, rank by count before grouping
[11] = selection against MyD88, rank by count after grouping
[12] = selection against MyD88, rank by count before grouping
[13] = selection against MyD88, rank after grouping
[14] = selection against MyD88, rank before grouping
[15] = P8_MyD88: rank by NGS read count after grouping
[16] = P8_MyD88: rank by NGS read count before grouping

Rank (after) [1]: 142 | Rank (before) [2]: 154 | Population [3]: 0.01%
Sequence: WALRELEAILQSFQLS

P3_MyD88 Rank (after) [4]: 627 | P3_MyD88 Rank (before) [5]: 3103
Sequence: SRDYATSPWALDELLR

Rank (after) [6]: 399 | Rank (before) [7]: 3123
Sequence: SSFLQHPWRLQKLSKK

Population [8]: 0.00437%
Sequence: EWIREQLRPALKEHLP

Rank (after) [1]: 123 | Rank (before) [2]: 132 | Population [3]: 0.0135%
Sequence: NFGYSTWALDELVKIM

P8_MyD88 Rank (after) [9]: 224 | P8_MyD88 Rank (before) [10]: 380
Sequence: WKEALTYVSLLVGFPF

Rank (after) [6]: 107 | Rank (before) [7]: 2044
Sequence: DHHLDLPSGKAIKPDILG

P8_MyD88 Rank (after) [11]: 731 | P8_MyD88 Rank (before) [12]: 2266
Sequence: VSHLSDSFERYGIMFF

P3_MyD88 Rank (after) [13]: 486 | P3_MyD88 Rank (before) [14]: 1491
Sequence: YAFTGHLRKQSGEFG

P8_MyD88 Rank (after) [13]: 537 | P8_MyD88 Rank (before) [14]: 2385
Sequence: DLVCDYLLPNLEGAAG

P3_MyD88 Rank (after) [4]: 668 | P3_MyD88 Rank (before) [5]: 1683
Sequence: YTALTNSGFSEENLF

P3_MyD88 Rank (after) [11]: 724 | P3_MyD88 Rank (before) [12]: 3792
Sequence: KNLIMEQLSKELHTVM

Rank (after) [1]: 177 | Rank (before) [2]: 202
Sequence: DYASSWWALEEMAKIM

P3_MyD88 Rank (after) [13]: 549 | P3_MyD88 Rank (before) [14]: 1746
Sequence: YNLISHLYDAMHRNRI

Rank (after) [6]: 125 | Rank (before) [7]: 1530
Sequence: YAFTGHLHSYLVQRSV

Rank (after) [1]: 143 | Rank (before) [2]: 1072
Sequence: DPHDLDWFYERLVSLL

P3_MyD88 Rank (after) [13]: 504 | P3_MyD88 Rank (before) [14]: 1638
Sequence: YTALSYRGFHDFRGNE

P8_MyD88 Rank (after) [13]: 519 | P8_MyD88 Rank (before) [14]: 3226
Sequence: LGYPWIDWEYYVGIED

P3_MyD88 Rank (after) [9]: 285 | P3_MyD88 Rank (before) [10]: 2735
Sequence: PSDVRKKTGSLAKAFA

Population [8]: 0.00495%
Sequence: NDLVHVWSSKANSLVG

Rank (after) [6]: 179 | Rank (before) [7]: 2160
Sequence: EWIREQLRPELQERLP

Rank (after) [1]: 137 | Rank (before) [2]: 151 | Population [3]: 0.0108%
Sequence: SWAVDELLKILQAWDE

Rank (after) [15]: 1020 | Rank (before) [16]: 3318
Sequence: LGYHRIDWEYCVGIED

Rank (after) [6]: 123 | Rank (before) [7]: 3109
Sequence: SRYREGLWRLLELSKK

P8_MyD88 Rank (after) [9]: 203 | P8_MyD88 Rank (before) [10]: 2685
Sequence: DPQALDWLYERLVSLF

P3_MyD88 Rank (after) [9]: 211 | P3_MyD88 Rank (before) [10]: 1126
Sequence: PSEVRVVDDGSVSPLEM

Rank (after) [1]: 422 | Rank (before) [2]: 2764
Sequence: DPQDLDWFYERLLSLS

Population [3]: 0.02% and 0.0158%
Sequence: DPQELDWFYERLVSLF

Rank (after) [15]: 964 | Rank (before) [16]: 1341
Sequence: FISDLYEALTRAGILA

Rank (after) [6]: 396 | Rank (before) [7]: 3469
Sequence: NQWLNSLTAPANPSDW

Rank (after) [1]: 99 | Rank (before) [2]: 396
Sequence: DPQDLDWFYERLVSPL

P8_MyD88 Rank (after) [4]: 654 | P8_MyD88 Rank (before) [5]: 3075
Sequence: DSFFWDRLLYILHVTE

Rank (after) [1]: 179 | Rank (before) [2]: 214
Sequence: LEANDSLFWDRLLYSLHVTE

Rank (after) [15]: 878 | Rank (before) [16]: 1395
Sequence: WAFASNMAQFWDRLYS

P8_MyD88 Rank (after) [11]: 684 | P8_MyD88 Rank (before) [12]: 2656
Sequence: DPQVLEWFYELLVSLL

Rank (after) [6]: 152 | Rank (before) [7]: 2117
Sequence: EHHLDLPRGKAIKPAILG

Rank (after) [15]: 941 | Rank (before) [16]: 3556
Sequence: HLIQQGIELHLHQLHL

Rank (after) [1]: 420 | Rank (before) [2]: 1088
Sequence: DPQDLDWFYDRLLYSLHVTE

Rank (after) [1]: 190 | Rank (before) [2]: 277
Sequence: YASSSWALDELLKILYANETM

Rank (after) [6]: 129 | Rank (before) [7]: 631
Sequence: DHHLICRVAKRLNRKFW

P8_MyD88 Rank (after) [13]: 527 | P8_MyD88 Rank (before) [14]: 3897
Sequence: KIARCMIFGVFWKAP
